The term ED50 denotes the midpoint of the dose-response relation.

The record followed here is patent US10351519B2, “Sulfamate derivative compounds, processes for preparing them and their uses” (BIO-PHARM SOLUTIONS CO., LTD., priority 2016, dated 2019).

Holding throughout (format): in vivo
One experiment concerns SD rats. Description: Anti-epilepsy activity, MES test, rat. As for the experimental part:
(§1) In the MES test (Ref., G. Villetti et al. Neuropharmacology 40 (2001) 866-878), an electrical stimulus (mice: 50 mA, 60 Hz, 0.2 sec, and rats: 150 mA, 60 Hz, 0.2 sec in the test animal) supplied by an 11A Shocker (IITC Life Science Company) was delivered through corneal electrodes. All mice or rats assigned to any electroshock at peak time were treated with each test compound sample which was dissolved in 30% PEG 400 or 20% tween 80 prepared by saline solvent applied orally before the test. […] Three doses of the test sample were administered orally to 9-18 animals (3-6 mice per dose) for evaluating the respective doses at which 50% of the animals were protected from seizure (ED50). The ED50 value (median effective dose) was calculated by Litchfield and Wicoxon log-probit method which is a dose-response relationship. Experimental animals, male ICR mice and male SD rats, were purchased from OrientBio, Samtako, or Nara Biotech, Korea, and housed in cages (4-5 mice or 3 rats per cage) for 4-5 days. The range of mice body weight was between 19 and 25 grams and range of rats body weight was between 100 and 130 grams.

For another experiment, the system named is ICR mice. Description: Anti-epilepsy activity, MES test, mouse. The following applies: for ED50 / responders at 50 mg/kg / responders at 30 mg/kg: po; for responders at 50 mg/kg / responders at 30 mg/kg: read-out: MES test (po) efficacy %. As for the experimental part: as §1
Experiment [1] relates to Sprague-Dawley rats. Description: Antiallodynic activity on Complete Freund's Adjuvant (CFA)-induced inflammatory pain model. As to conditions: intraperitoneally; for response vs control in vivo at 50 mg/kg: read-out: CFA-induced pain model efficacy %. As for the experimental part:
Male, Sprague-Dawley rats (210-250 g, Nara Bio, Korea) were habituated for 1 week before CFA injection and allowed free access to food and water throughout the experimentation. Room temperature and humidity were maintained at 24±2 and 50±10%, respectively.
CFA-induced inflammatory pain was induced by the procedure of Nagakura et al. (2003) and Gregory P. et al. (2010) with minor modifications. CFA (sigma, USA) was injected in the right plantar with a 100 ul volume under gaseous anesthesia with isoflurane. Sham controls were injected with 100 ul of saline and preparation of the vehicles without compound in the vehicle control group. Tactile sensitivity (Mechanical allodynia) was evaluated using von Frey monofilaments before and after treatment, and the animals were included in the study only if the withdrawal threshold value was less than 4 g. One week after surgery, CFA-infused treatment animals (n=4-6), sham-operated animals (n=12), and vehicle control animals (n=17) were tested for tactile sensitivity with von Frey monofilaments 3 trials for each animal. All Animals were placed in a stainless steel mesh chamber and habituated for 30 min in the test box. The tactile sensitivity for ipsilateral hind paw was measured using the up-and-down method (Dixon, 1980) with seven von Frey monofilaments (0.4, 1, 2, 4, 6, 8, and 15 g) to 3 trials. Tactile sensitivity test was followed by Dixon's method (Dixon, 1980). The 50% paw withdrawal threshold for each paw was calculated using the following formula: [Xth] log=[vFr] log+ky where [vFr] is the force of the last von Frey used, k=0.2249 which is the average interval (in log units) between the von Frey monofilaments, and y is a value that depends upon the pattern of withdrawal responses (Dixon, 1980).
Antiallodynic effect of compound was evaluated at the dose of 10-60 mg/kg (n=4-6), intraperitoneally administrated in a volume of 5 ul/g bw in a vehicle of 30% (v/v) PEG or 20% (v/v) Tween 80. The test was performed peak time of efficacy (0.5 or 1 hr) after compound administration.
The relative values compared to the sham (% control) were calculated and shown in Table 4, which show an antiallodynic effect of Compound 1 on CFA-induced pain model in rats.

Experiment [2] relates to Sprague-Dawley rats. Put plainly: Antiallodynic activity on Chung model (SNL, spinal nerve ligation). As to conditions: orally. The source says:
Male Sprague-Dawley rats (100-130 g, Orient Bio, Korea) were habituated for 1 week before the experiment and allowed free access to food and water throughout the experimentation. Room temperature and humidity were maintained at 24±2 and 50±10%, respectively. The neuropathic surgery (SNL, Spinal nerve ligation) model was done as described in Kim and Chung (1992). Briefly, an animal was put under gaseous anesthesia with isoflurane. The left lumber spinal nerve L5 and L6 were isolated and tightly ligated with 6-0 silk thread. The wound muscle was closed with Catgut® chrom 3/0 thread and skin was closed with Dafilon 3/0 tread. Sham controls were prepared in the same manner with the spinal nerves exposed, but with no ligated L5 and L6 nerves. Preparation of the vehicle controls were identical to the group treated with compound, except for administration of vehicles without compound in the vehicle control group.
Tactile sensitivity (Mechanical allodynia) was evaluated using von Frey monofilaments before and after treatment, and animals were included in the study only if the withdrawal threshold value was less than 4 g. One week after surgery, SNL-operated animals, sham-operated animals and vehicle control animals were tested for tactile sensitivity with von Frey monofilaments 3 trials in each animal. All Animals were placed in a stainless steel mash chamber and habituated for 30 min in the test cage. The tactile sensitivity for the ipsilateral hind paw was measured using the up-and-down method (Dixon, 1980) with seven von Frey monofilaments (0.4, 1, 2, 4, 6, 8, and 15 g) in 3 trials. The tactile sensitivity test was followed by Dixon's method (Dixon, 1980). The 50% paw withdrawal threshold for each paw was calculated using the following formula: [Xth] log=[vFr] log+ky where [vFr] is the force of the last von Frey used, k=0.2249 which is the average interval (in log units) between the von Frey monofilaments, and y is a value that depends upon the pattern of withdrawal responses (Dixon, 1980).
All animals were fasted 18 h before the administration of the compounds. Antiallodynic effect of compounds were evaluated at the three dose, orally administrated in a volume of 5 ul/g, bw in a vehicle of 30% (v/v) PEG 400 or 20% (v/v) Tween 80. The test was performed at the peak time of efficacy after compound administration.
The relative values compared to the sham group (% control) were calculated and shown in Table 3, which show an antiallodynic effect of the test compounds on SNL model in rats.

Take `C[C@H](OS(N)(=O)=O)[C@@H](O)c1ccc(Cl)cc1Cl` [Example 3, (1S, 2S)-1-(2,4-dichlorophenyl)-1-hydroxypropan-2-yl sulfamate]: the “MES test (po) Peak time” value with SD rats is listed as 4 h. In the experiment on SD rats (20 mg/kg), the “MES test (po) efficacy %” value is reported as 16.6%.

Consider `C[C@H](OS(N)(=O)=O)[C@@H](O)c1cccc(Cl)c1Cl` [Example 9, (1S, 2S)-1-(2,3-dichlorophenyl)-1-hydroxypropan-2-yl sulfamate], for which, in the experiment with ICR mice, the “MES test (po) Peak time” value was 4 h and it took a dose of 61.8 mg/kg to reach the 50% effect level (ED50).

For the compound `CC[C@H](OS(N)(=O)=O)[C@@H](O)c1ccccc1Cl` [Example 11, (1S, 2S)-1-(2-chlorophenyl)-1-hydroxybutan-2-yl sulfamate], the “MES test (po) Peak time” value with SD rats and with ICR mice was 2 h throughout. The “MES test (po) efficacy %” value in the experiment with SD rats (24 mg/kg) is listed as 33.3%. The responders at 50 mg/kg in the experiment on ICR mice came to 25%.

As to `CC[C@@H](OS(N)(=O)=O)[C@H](O)c1ccccc1Cl` [Example 12, (1R, 2R)-1-(2-chlorophenyl)-1-hydroxybutan-2-yl sulfamate], in the experiment on Sprague-Dawley rats [1] (Rattus norvegicus, ip), the response vs control in vivo at 50 mg/kg turned out to be 21.9%. Moreover, the “CFA-induced pain model Peak Time” value with Sprague-Dawley rats [1] came to 0.5 h. Moreover, the “MES test (po) Peak time” value in the experiment on SD rats was 1 h. Also, the “MES test (po) efficacy %” value in the experiment with SD rats (100 mg/kg) stood at 100%.

On to `CC(C)[C@H](OS(N)(=O)=O)[C@@H](O)c1ccccc1Cl` [Example 13, (1S, 2S)-1-(2-chlorophenyl)-1-hydroxy-3-methylbutan-2-yl sulfamate], for which, in the experiment with ICR mice, the “MES test (po) Peak time” value came out at 1 h and the responders at 50 mg/kg is 25%.

`CC(C)[C@@H](OS(N)(=O)=O)[C@H](O)c1ccccc1Cl` [Example 14, (1R, 2R)-1-(2-chlorophenyl)-1-hydroxy-3-methylbutan-2-yl sulfamate]: the response vs control in vivo at 50 mg/kg in the experiment with Sprague-Dawley rats [1] (Rattus norvegicus, ip) amounted to 18.4%. Besides, the “CFA-induced pain model Peak Time” value with Sprague-Dawley rats [1] is 1 h. Also, in the experiment on ICR mice, the “MES test (po) Peak time” value was determined as 1 h and the responders at 50 mg/kg is 25%.

Regarding `C[C@H](OS(N)(=O)=O)[C@@H](O)c1ccccc1F` [Example 17, (1S, 2S)-1-(2-fluorophenyl)-1-hydroxypropan-2-yl sulfamate], the ED50 in the experiment on Sprague-Dawley rats [1] (Rattus norvegicus, ip, at peak time) was found to be 48.7 mg/kg; in the experiment on Sprague-Dawley rats [2] (Rattus norvegicus, po, at peak time) it was 46.9 mg/kg. For the same compound, the “CFA-induced pain model Peak Time” value in the experiment with Sprague-Dawley rats [1] is reported as 0.5 h. In addition, the “SNL Peak Time” value with Sprague-Dawley rats [2] is given as 1 h.

Regarding `CC(C)NS(=O)(=O)O[C@@H](C)[C@@H](O)c1ccccc1Cl` [Example 37, (1S, 2S)-1-(2-chlorophenyl)-1-hydroxypropan-2-yl isopropylsulfamate], the “MES test (po) Peak time” value in the experiment on SD rats worked out at 2 h. The “MES test (po) efficacy %” value with SD rats (10 mg/kg) came to 16.6%.

As for `CC(C)NS(=O)(=O)O[C@H](C)[C@H](O)c1ccccc1Cl` [Example 38, (1R, 2R)-1-(2-chlorophenyl)-1-hydroxypropan-2-yl isopropylsulfamate], in the experiment on ICR mice, the “MES test (po) Peak time” value is 2 h and the responders at 50 mg/kg was 50%.

On to `COCO[C@@H](c1cccc(Cl)c1Cl)[C@H](C)OS(N)(=O)=O` [Example 53, (1S, 2S)-1-(2,3-dichlorophenyl)-1-(methoxymethoxy)propan-2-yl sulfamate], for which, in the experiment on ICR mice, the “MES test (po) Peak time” value turned out to be 2 h and the ED50 was determined as 67.8 mg/kg.

Consider `COCO[C@@H](c1c(Cl)cccc1Cl)[C@H](C)OS(N)(=O)=O` [Example 57, (1S, 2S)-1-(2,6-dichlorophenyl)-1-(methoxymethoxy)propan-2-yl sulfamate], for which the “SNL Peak Time” value in the experiment with Sprague-Dawley rats [2] came to 1 h. The SNL efficacy % in the experiment with Sprague-Dawley rats [2] (30 mg/kg) was 30(26.3%).

As to `COCO[C@H](c1c(Cl)cccc1Cl)[C@@H](C)OS(N)(=O)=O` [Example 58, (1R, 2R)-1-(2,6-dichlorophenyl)-1-(methoxymethoxy)propan-2-yl sulfamate], the response vs control in vivo at 50 mg/kg in the experiment with Sprague-Dawley rats [1] (Rattus norvegicus, ip) is 17.7%. The “CFA-induced pain model Peak Time” value with Sprague-Dawley rats [1] was 0.5 h. Further, in the experiment with ICR mice, the “MES test (po) Peak time” value was 1 h and the ED50 amounted to 54.4 mg/kg.

With `COCO[C@@H](c1c(F)cccc1Cl)[C@H](C)OS(N)(=O)=O` [Example 61, (1S, 2S)-1-(2-chloro-6-fluorophenyl)-1-(methoxymethoxy)propan-2-yl sulfamate], in the experiment with ICR mice, the “MES test (po) Peak time” value amounted to 2 h and the responders at 30 mg/kg is 33.3%.

For the compound `COCO[C@@H](c1ccccc1F)[C@H](C)OS(N)(=O)=O` [Example 72, (1S, 2S)-1-(2-fluorophenyl)-1-(methoxymethoxy)propan-2-yl sulfamate], the response vs control in vivo at 50 mg/kg in the experiment on Sprague-Dawley rats [1] (Rattus norvegicus, ip) amounted to 25.9%. The “CFA-induced pain model Peak Time” value in the experiment on Sprague-Dawley rats [1] was determined as 0.5 h.

As for `COCO[C@@H](c1ccccc1I)[C@H](C)OS(N)(=O)=O` [Example 74, (1S, 2S)-1-(2-iodophenyl)-1-(methoxymethoxy)propan-2-yl sulfamate], in the experiment with Sprague-Dawley rats [1] (Rattus norvegicus, ip), the response vs control in vivo at 50 mg/kg is 19.9%. Also, in the experiment on Sprague-Dawley rats [1], the “CFA-induced pain model Peak Time” value is recorded as 0.5 h. In addition, in the experiment on ICR mice, the “MES test (po) Peak time” value came to 0.5 h and the responders at 30 mg/kg worked out at 33.3%.

Turning to `COCO[C@@H](c1ccccc1Cl)[C@H](C)OS(=O)(=O)NC1CC1` [Example 78, (1S, 2S)-1-(2-chlorophenyl)-1-(methoxymethoxy)propan-2-yl cyclopropylsulfamate], in the experiment with ICR mice, the “MES test (po) Peak time” value is on record as 4 h and the responders at 50 mg/kg came to 25%.

For `COCO[C@H](c1ccccc1Cl)[C@@H](C)OS(=O)(=O)NC1CC1` [Example 79, (1R, 2R)-1-(2-chlorophenyl)-1-(methoxymethoxy)propan-2-yl cyclopropylsulfamate], in the experiment with ICR mice, the “MES test (po) Peak time” value was found to be 1 h and the responders at 50 mg/kg worked out at 25%.

On to `CO[C@@H](c1ccccc1I)[C@H](C)OS(N)(=O)=O` [Example 92, (1S,2S)-1-(2-iodophenyl)-1-methoxypropan-2-yl sulfamate], for which, in the experiment on Sprague-Dawley rats [1] (Rattus norvegicus, ip), the response vs control in vivo at 50 mg/kg is 31.8%. Moreover, the “CFA-induced pain model Peak Time” value with Sprague-Dawley rats [1] is listed as 0.5 h.

Regarding `C[C@H](OS(N)(=O)=O)[C@@H](O)c1sc(Cl)nc1Cl` [Example 102, (1R,2S)-1-(2,4-dichlorothiazol-5-yl)-1-hydroxypropan-2-yl sulfamate], in the experiment on ICR mice, the “MES test (po) Peak time” value is recorded as 2 h and the ED50 came out at 42.7 mg/kg.

Turning to `COCO[C@@H](c1sc(Cl)nc1Cl)[C@H](C)OS(N)(=O)=O` [Example 103, (1R,2S)-1-(2,4-dichlorothiazol-5-yl)-1-(methoxymethoxy)propan-2-yl sulfamate], in the experiment with ICR mice, the “MES test (po) Peak time” value is reported as 2 h and the ED50 was 52.7 mg/kg.
